Data: ChEMBL document CHEMBL3108683, “An Accessible Chiral Linker to Enhance Potency and Selectivity of Neuronal Nitric Oxide Synthase Inhibitors” (ACS Med Chem Lett, 2014)
pKi: −log10 of the molar value.

Legend:
[1] = biological target: T1, Nitric oxide synthase, inducible (Mus musculus, UniProt P29477); test: Inhibition of mouse recombinant iNOS overexpressed in Escherichia coli using L-arginine as substrate assessed as formation of NO-hemoglobin complex measured up to 180 seconds by hemoglobin capture assay
T1 sequence (P29477 whole entry): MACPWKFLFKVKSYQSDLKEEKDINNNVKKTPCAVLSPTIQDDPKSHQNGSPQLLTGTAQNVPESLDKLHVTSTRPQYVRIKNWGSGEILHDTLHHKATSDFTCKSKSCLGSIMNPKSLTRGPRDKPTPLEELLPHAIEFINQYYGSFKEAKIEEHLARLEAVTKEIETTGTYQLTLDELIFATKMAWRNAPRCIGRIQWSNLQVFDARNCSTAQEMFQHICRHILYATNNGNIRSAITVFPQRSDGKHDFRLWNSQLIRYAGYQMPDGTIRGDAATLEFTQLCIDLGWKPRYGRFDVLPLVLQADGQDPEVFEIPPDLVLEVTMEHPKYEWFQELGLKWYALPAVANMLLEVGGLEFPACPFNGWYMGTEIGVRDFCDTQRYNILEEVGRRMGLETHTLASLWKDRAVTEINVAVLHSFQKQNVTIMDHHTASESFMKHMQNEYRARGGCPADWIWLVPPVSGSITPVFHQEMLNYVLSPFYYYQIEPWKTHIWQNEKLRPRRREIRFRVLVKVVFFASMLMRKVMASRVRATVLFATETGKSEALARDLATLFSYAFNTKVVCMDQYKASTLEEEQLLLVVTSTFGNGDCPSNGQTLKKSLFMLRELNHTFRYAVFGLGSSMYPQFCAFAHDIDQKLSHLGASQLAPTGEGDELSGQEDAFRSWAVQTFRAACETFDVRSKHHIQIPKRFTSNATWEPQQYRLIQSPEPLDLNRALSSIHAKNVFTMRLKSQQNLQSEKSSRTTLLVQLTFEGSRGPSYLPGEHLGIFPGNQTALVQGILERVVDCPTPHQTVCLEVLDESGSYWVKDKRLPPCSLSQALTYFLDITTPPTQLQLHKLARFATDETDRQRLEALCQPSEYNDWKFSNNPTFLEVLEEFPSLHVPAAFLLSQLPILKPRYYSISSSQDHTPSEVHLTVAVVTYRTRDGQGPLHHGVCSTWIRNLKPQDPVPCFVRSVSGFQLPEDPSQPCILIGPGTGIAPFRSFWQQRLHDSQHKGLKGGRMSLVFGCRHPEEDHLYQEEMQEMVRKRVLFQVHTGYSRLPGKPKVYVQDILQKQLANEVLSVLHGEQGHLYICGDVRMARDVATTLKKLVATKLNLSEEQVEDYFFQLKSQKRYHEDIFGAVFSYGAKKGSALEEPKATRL

Nitric oxide synthase 3 = biological target: T2, Nitric oxide synthase 3 (Bos taurus, UniProt P29473); test: Inhibition of bovine recombinant eNOS overexpressed in Escherichia coli using L-arginine as substrate assessed as formation of NO-hemoglobin complex measured up to 180 seconds by hemoglobin capture assay
T2 sequence (P29473 whole entry): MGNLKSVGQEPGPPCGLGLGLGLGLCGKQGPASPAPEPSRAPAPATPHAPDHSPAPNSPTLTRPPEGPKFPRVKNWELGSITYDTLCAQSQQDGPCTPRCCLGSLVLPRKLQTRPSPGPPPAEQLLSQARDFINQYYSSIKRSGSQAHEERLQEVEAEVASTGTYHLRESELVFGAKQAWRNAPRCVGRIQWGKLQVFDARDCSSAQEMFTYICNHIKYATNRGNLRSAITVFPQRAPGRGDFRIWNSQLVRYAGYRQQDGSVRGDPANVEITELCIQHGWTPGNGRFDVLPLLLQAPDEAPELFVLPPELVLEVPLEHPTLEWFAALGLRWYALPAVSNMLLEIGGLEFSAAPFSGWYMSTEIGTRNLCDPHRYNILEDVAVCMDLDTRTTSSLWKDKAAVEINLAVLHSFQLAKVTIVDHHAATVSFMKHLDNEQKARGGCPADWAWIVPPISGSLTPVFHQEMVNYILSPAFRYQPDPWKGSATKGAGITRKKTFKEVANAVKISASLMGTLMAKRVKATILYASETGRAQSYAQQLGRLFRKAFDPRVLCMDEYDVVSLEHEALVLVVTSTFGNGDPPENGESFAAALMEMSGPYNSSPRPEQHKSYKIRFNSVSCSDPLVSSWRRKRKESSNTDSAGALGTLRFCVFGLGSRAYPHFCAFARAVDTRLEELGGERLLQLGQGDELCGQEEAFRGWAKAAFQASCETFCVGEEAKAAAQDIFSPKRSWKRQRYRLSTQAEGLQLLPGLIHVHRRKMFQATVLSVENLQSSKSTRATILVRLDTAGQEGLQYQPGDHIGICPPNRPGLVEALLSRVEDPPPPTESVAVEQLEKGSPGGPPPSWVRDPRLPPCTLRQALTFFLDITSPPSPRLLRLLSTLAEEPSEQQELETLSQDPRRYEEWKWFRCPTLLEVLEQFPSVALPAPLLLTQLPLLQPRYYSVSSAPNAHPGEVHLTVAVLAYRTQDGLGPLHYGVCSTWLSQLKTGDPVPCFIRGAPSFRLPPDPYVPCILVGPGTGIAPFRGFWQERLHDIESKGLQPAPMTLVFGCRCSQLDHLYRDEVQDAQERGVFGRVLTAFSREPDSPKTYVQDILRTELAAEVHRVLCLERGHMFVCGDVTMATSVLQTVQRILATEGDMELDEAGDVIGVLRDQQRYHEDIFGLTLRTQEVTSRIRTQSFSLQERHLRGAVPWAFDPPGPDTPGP

Nitric oxide synthase 1 = Nitric oxide synthase 1 (Rattus norvegicus, UniProt P29476); test: Inhibition of rat recombinant nNOS overexpressed in Escherichia coli using L-arginine as substrate assessed as formation of NO-hemoglobin complex measured up to 180 seconds by hemoglobin capture assay
Sequence of Nitric oxide synthase 1 (P29476 whole entry): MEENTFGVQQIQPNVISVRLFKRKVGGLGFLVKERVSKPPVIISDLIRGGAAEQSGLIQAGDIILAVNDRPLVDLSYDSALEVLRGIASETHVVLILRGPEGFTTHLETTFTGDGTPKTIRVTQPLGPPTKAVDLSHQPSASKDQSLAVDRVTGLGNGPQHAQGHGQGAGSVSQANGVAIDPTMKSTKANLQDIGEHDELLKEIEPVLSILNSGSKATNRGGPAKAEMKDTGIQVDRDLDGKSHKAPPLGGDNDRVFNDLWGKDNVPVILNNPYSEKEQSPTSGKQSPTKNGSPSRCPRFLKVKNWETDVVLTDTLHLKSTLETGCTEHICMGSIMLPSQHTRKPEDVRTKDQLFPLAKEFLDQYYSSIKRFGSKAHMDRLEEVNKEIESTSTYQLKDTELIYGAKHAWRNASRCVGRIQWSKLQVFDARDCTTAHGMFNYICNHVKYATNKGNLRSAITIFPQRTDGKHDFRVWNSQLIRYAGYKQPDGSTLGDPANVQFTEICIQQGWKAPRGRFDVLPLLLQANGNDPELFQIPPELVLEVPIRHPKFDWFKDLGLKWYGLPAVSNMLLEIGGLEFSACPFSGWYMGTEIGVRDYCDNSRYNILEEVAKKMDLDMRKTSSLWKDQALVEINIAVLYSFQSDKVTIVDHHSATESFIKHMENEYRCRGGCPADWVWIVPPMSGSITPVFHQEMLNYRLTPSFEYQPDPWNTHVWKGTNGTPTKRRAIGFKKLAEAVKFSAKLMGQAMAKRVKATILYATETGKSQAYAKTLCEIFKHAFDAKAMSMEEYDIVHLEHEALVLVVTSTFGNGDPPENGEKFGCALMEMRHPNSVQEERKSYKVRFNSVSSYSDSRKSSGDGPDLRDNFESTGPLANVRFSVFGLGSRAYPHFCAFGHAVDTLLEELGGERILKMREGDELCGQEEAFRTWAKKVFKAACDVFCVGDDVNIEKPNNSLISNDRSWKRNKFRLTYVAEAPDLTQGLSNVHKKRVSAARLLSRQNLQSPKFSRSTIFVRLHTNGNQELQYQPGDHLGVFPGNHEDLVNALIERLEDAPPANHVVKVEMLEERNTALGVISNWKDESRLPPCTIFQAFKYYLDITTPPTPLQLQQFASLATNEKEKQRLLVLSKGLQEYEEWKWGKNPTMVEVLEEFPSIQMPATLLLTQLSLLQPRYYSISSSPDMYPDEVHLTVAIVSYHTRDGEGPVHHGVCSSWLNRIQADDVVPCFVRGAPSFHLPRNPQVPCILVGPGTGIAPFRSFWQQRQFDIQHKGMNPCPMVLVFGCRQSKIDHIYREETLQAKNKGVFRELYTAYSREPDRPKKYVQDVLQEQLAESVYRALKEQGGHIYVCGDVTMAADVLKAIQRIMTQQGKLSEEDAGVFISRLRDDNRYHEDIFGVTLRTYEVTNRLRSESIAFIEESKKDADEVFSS

Cc1cc(N)nc(COC[C@H]2C[C@H](OCc3cc(C)cc(N)n3)CN2)c1
pKi [1]: 5.54
pKi (Nitric oxide synthase 3): 5.17
pKi (Nitric oxide synthase 1): 8.01
